The supplement of paper PMC11208160

Assay: recombinant UMI read abundance after kanamycin selection (control-corrected) (log10(CPM+1)); higher = more efficient recombination; extreme values may be limits of the assay; sequences stand for … in AGTGCAGAGAAAATCGGCCAGTTTTCTCTGCCTGCAGTCCGCATGCCGTGGGACCCCTTGGGTTCTAACCTGTTGCCTAGATTTATGCAGCGGACTGCCTTTCTCCCAAAGTGATAAACCGG…AGGTTGGTTTCACT; site = the 11-nt donor
Summary of the method: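 Values, expressed as log10(CPM+1), derive from recombinant UMI counts converted to CPM, averaged across replicates and scaled by control-derived factors. Plating was with IPTG (0.07 mM) plus kanamycin or unselected, two replicates each. The screen pooled donor and donor-binding-loop pairs for the IS621 bridge recombinase in Escherichia coli.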
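Further: IS621 bridge recombinase in Escherichia coli cells against a fixed T5 target plasmid.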

Row | Sequence | recombinant UMI read abundance (log10)
1 | CTATAATCATGGACCGGTTTTCCCGGTAATCCGTATTTGCT (site CTATAATCTAG) | 3.13
2 | CTATATCCATGGACCGGTTTTCCCGGTAATCCGTATTTGAG (site CTATATCCTCT) | 1.41
3 | CTATCCTCATGGACCGGTTTTCCCGGTAATCCGTATTTGCT (site CGATCATCTAG) | 0
4 | CTATCCTCATGGACCGGTTTTCCCGGTAATCCGTATTTGCT (site CTATCCTCTAG) | 3.09
5 | CTATCCTCATGGACCGGTTTTCCCGGTAATCCGTATTTGTT (site CTATCCTCTAA) | 2.79
6 | CTATTAACATGGACCGGTTTTCCCGGTAATCCGTATTTGGA (site CTAATAACTTC) | 0.484
7 | CTATTAACATGGACCGGTTTTCCCGGTAATCCGTATTTGGA (site CTACTAACTTC) | 0.342
8 | CTATTAACATGGACCGGTTTTCCCGGTAATCCGTATTTGGA (site CTAGTAACTTC) | 0.397
9 | CTATTAACATGGACCGGTTTTCCCGGTAATCCGTATTTGGA (site CTATTAACTTC) | 1.64
10 | CTATTGGCATGGACCGGTTTTCCCGGTAATCCGTATTTGTA (site CTATTGGCTTA) | 1.84
11 | CTATTGTCATGGACCGGTTTTCCCGGTAATCCGTATTTGAC (site CTAGTATCTGT) | 0
12 | CTATTGTCATGGACCGGTTTTCCCGGTAATCCGTATTTGAC (site CTATTGTCTGT) | 0
13 | CTCAAAGCATGGACCGGTTTTCCCGGTAATCCGTATTTGCG (site CTCAAAGCTCG) | 0.762
14 | CTCAGCCCATGGACCGGTTTTCCCGGTAATCCGTATTTGCC (site CTCAGCCCTGG) | 0
15 | CTCAGCTCATGGACCGGTTTTCCCGGTAATCCGTATTTGAA (site CTCAGCTCTTT) | 2.08
16 | CTCATTCCATGGACCGGTTTTCCCGGTAATCCGTATTTGCT (site CTCATTCCTAG) | 0.523
17 | CTCCAAACATGGACCGGTTTTCCCGGTAATCCGTATTTGGC (site CTCCAAACTGC) | 0
18 | CTCCAACCATGGACCGGTTTTCCCGGTAATCCGTATTTGCC (site CTCCAACCTGG) | 0
19 | CTCCATGCATGGACCGGTTTTCCCGGTAATCCGTATTTGTC (site CTCCATGCTGA) | 2.3
20 | CTCCCGACATGGACCGGTTTTCCCGGTAATCCGTATTTGAG (site CTCCCAACTCT) | 0.849
21 | CTCCCGACATGGACCGGTTTTCCCGGTAATCCGTATTTGAG (site CTCCCCACTCT) | 0.00318
22 | CTCCCGACATGGACCGGTTTTCCCGGTAATCCGTATTTGAG (site CTCCCGACTCT) | 0.968
23 | CTCCCGACATGGACCGGTTTTCCCGGTAATCCGTATTTGAG (site CTCCCTACTCT) | 0.0167
24 | CTCCCTACATGGACCGGTTTTCCCGGTAATCCGTATTTGAT (site CTCCCTACTAT) | 1.01
25 | CTCCCTACATGGACCGGTTTTCCCGGTAATCCGTATTTGAT (site CTCCCTACTCT) | 0.00726

Row | Sequence | recombinant UMI read abundance (log10)
26 | CTCCCTACATGGACCGGTTTTCCCGGTAATCCGTATTTGAT (site CTCCCTACTGT) | 0.137
27 | CTCCCTACATGGACCGGTTTTCCCGGTAATCCGTATTTGAT (site CTCCCTACTTT) | 0.0164
28 | CTCCCTACATGGACCGGTTTTCCCGGTAATCCGTATTTGGG (site CTCCCTACTCA) | 0.037
29 | CTCCCTACATGGACCGGTTTTCCCGGTAATCCGTATTTGGG (site CTCCCTACTCC) | 0.0177
30 | CTCCCTACATGGACCGGTTTTCCCGGTAATCCGTATTTGGG (site CTCCCTACTCG) | 0.00544
31 | CTCCCTACATGGACCGGTTTTCCCGGTAATCCGTATTTGGG (site CTCCCTACTCT) | 0.0127
32 | CTCCCTGCATGGACCGGTTTTCCCGGTAATCCGTATTTGGC (site CTCCCTGCTGC) | 0
33 | CTCCGACCATGGACCGGTTTTCCCGGTAATCCGTATTTGAC (site CTCCGACCTGT) | 0
34 | CTCCTACCATGGACCGGTTTTCCCGGTAATCCGTATTTGCT (site CTACTACCTAG) | 0
35 | CTCCTACCATGGACCGGTTTTCCCGGTAATCCGTATTTGCT (site CTCCTACCTAG) | 0
36 | CTCCTACCATGGACCGGTTTTCCCGGTAATCCGTATTTGCT (site CTGCTACCTAG) | 0.00362
37 | CTCCTACCATGGACCGGTTTTCCCGGTAATCCGTATTTGCT (site CTTCTACCTAG) | 0
38 | CTCGAAACATGGACCGGTTTTCCCGGTAATCCGTATTTGTG (site CTCGAAACTCA) | 1.06
39 | CTCGAATCATGGACCGGTTTTCCCGGTAATCCGTATTTGCA (site CTCGAATCTTG) | 2.42
40 | CTCGACACATGGACCGGTTTTCCCGGTAATCCGTATTTGGC (site CTCGACACTGC) | 1.04
41 | CTCGCAACATGGACCGGTTTTCCCGGTAATCCGTATTTGTT (site CTCGCAACTAA) | 1.96
42 | CTCGGAGCATGGACCGGTTTTCCCGGTAATCCGTATTTGAC (site CTCGGAGCTGT) | 2.63
43 | CTCGTAACATGGACCGGTTTTCCCGGTAATCCGTATTTGAT (site CTCGTAACTAT) | 2.31
44 | CTCGTATCATGGACCGGTTTTCCCGGTAATCCGTATTTGAG (site CTAGTATCTGT) | 0
45 | CTCGTATCATGGACCGGTTTTCCCGGTAATCCGTATTTGAG (site CTCGTATCTCT) | 1.9
46 | CTCTAAGCATGGACCGGTTTTCCCGGTAATCCGTATTTGTC (site CTCTAAGCTGA) | 1.81
47 | CTCTACACATGGACCGGTTTTCCCGGTAATCCGTATTTGAT (site CTCTACACTAA) | 0.0183
48 | CTCTACACATGGACCGGTTTTCCCGGTAATCCGTATTTGAT (site CTCTACACTAC) | 0.0649
49 | CTCTACACATGGACCGGTTTTCCCGGTAATCCGTATTTGAT (site CTCTACACTAG) | 0.00358
50 | CTCTACACATGGACCGGTTTTCCCGGTAATCCGTATTTGAT (site CTCTACACTAT) | 2.19

Row | Sequence | recombinant UMI read abundance (log10)
51 | CTCTACACATGGACCGGTTTTCCCGGTAATCCGTATTTGCC (site CTCTACACTAG) | 0.72
52 | CTCTACACATGGACCGGTTTTCCCGGTAATCCGTATTTGCC (site CTCTACACTCG) | 0.0134
53 | CTCTACACATGGACCGGTTTTCCCGGTAATCCGTATTTGCC (site CTCTACACTGG) | 2.37
54 | CTCTACACATGGACCGGTTTTCCCGGTAATCCGTATTTGCC (site CTCTACACTTG) | 2.13
55 | CTCTACCCATGGACCGGTTTTCCCGGTAATCCGTATTTGCT (site CTCTACACTAG) | 0.274
56 | CTCTACCCATGGACCGGTTTTCCCGGTAATCCGTATTTGCT (site CTCTACCCTAG) | 1.74
57 | CTCTACCCATGGACCGGTTTTCCCGGTAATCCGTATTTGCT (site CTCTACGCTAG) | 0.00357
58 | CTCTACCCATGGACCGGTTTTCCCGGTAATCCGTATTTGCT (site CTCTACTCTAG) | 2.87
59 | CTCTAGACATGGACCGGTTTTCCCGGTAATCCGTATTTGCT (site CTCTAAACTAG) | 0.681
60 | CTCTAGACATGGACCGGTTTTCCCGGTAATCCGTATTTGCT (site CTCTACACTAG) | 0.119
61 | CTCTAGACATGGACCGGTTTTCCCGGTAATCCGTATTTGCT (site CTCTAGACTAG) | 0.576
62 | CTCTAGACATGGACCGGTTTTCCCGGTAATCCGTATTTGCT (site CTCTATACTAG) | 0
63 | CTCTCCACATGGACCGGTTTTCCCGGTAATCCGTATTTGCT (site CTCTACACTAG) | 0.902
64 | CTCTCCACATGGACCGGTTTTCCCGGTAATCCGTATTTGCT (site CTCTCCACTAG) | 2.34
65 | CTCTCCACATGGACCGGTTTTCCCGGTAATCCGTATTTGCT (site CTCTGCACTAG) | 0
66 | CTCTCCACATGGACCGGTTTTCCCGGTAATCCGTATTTGCT (site CTCTTCACTAG) | 0.534
67 | CTCTGCACATGGACCGGTTTTCCCGGTAATCCGTATTTGCT (site CTCTACACTAG) | 0.861
68 | CTCTGCACATGGACCGGTTTTCCCGGTAATCCGTATTTGCT (site CTCTCCACTAG) | 0.00325
69 | CTCTGCACATGGACCGGTTTTCCCGGTAATCCGTATTTGCT (site CTCTGCACTAG) | 2.1
70 | CTCTGCACATGGACCGGTTTTCCCGGTAATCCGTATTTGCT (site CTCTTCACTAG) | 0.00616
71 | CTCTTCTCATGGACCGGTTTTCCCGGTAATCCGTATTTGTA (site CTCTTCTCTTA) | 2.1
72 | CTGACTCCATGGACCGGTTTTCCCGGTAATCCGTATTTGGG (site CTGACTCCTCC) | 0.44
73 | CTGCAAACATGGACCGGTTTTCCCGGTAATCCGTATTTGCA (site CTGAAAACTTG) | 0
74 | CTGCAAACATGGACCGGTTTTCCCGGTAATCCGTATTTGCA (site CTGCAAACTTG) | 0.915
75 | CTGCAAACATGGACCGGTTTTCCCGGTAATCCGTATTTGCA (site CTGGAAACTTG) | 0
